According to patent publication US7709481B2, “Phenyl-1,2,4-oxadiazolone derivatives, processes for their preparation and methods for their use as pharmaceuticals” (Sanofi-Aventis, priority 2005, dated 2010):
Read-outs that look alike come from different tables or passages of the source.

How the values were obtained:
[1] = target: T1, human PPARalpha (Homo sapiens, UniProt Q07869); assay: Cellular PPARalpha assay (HEK PPARalpha reporter cell line, luciferase); type: cell-based; settings: 24 h incubation
T1 construct: human PPARalpha receptor (amino acids S167-Y468); expressed in transfected cells; plasmid pcDNA3
T1 sequence (Q07869 167-468): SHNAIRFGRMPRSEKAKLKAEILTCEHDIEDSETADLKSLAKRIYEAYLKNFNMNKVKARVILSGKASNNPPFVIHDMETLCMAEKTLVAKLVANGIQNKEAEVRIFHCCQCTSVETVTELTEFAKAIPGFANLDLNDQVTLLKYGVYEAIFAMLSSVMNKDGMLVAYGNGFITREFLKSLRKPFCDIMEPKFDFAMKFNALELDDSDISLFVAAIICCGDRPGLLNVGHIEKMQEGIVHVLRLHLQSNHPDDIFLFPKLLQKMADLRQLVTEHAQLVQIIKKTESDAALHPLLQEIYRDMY
Experimental: The activity of the compounds was tested as follows. The potency of substances which bind to human PPARalpha and activate it in an agonistic manner is analyzed using a stably transfected HEK cell line (HEK=human embryo kidney) which is referred to here as PPARalpha reporter cell line. It contains two genetic elements, a luciferase reporter element (pdeltaM-GAL4-Luc-Zeo) and a PPARalpha fusion protein (GR-GAL4-humanPPARalpha-LBD) which mediates expression of the luciferase reporter element depending on a PPARalpha ligand. The stably and constitutively expressed fusion protein GR-GAL4-humanPPARalpha-LBD binds in the cell nucleus of the PPARalpha reporter cell line via the GAL4 protein portion to the GAL4 DNA binding motifs 5′-upstream of the luciferase reporter element which is stably integrated in the genome of the cell line. There is only weak expression of the luciferase reporter gene in the absence of a PPARalpha ligand if fatty acid-depleted fetal calf serum (cs-FCS) is used in the assay. PPARalpha ligands bind and activate the PPARalpha fusion protein and thereby stimulate the expression of the luciferase reporter gene. The luciferase which is formed can be detected by means of chemiluminescence via an appropriate substrate.
The PPARalpha reporter cell line was prepared in two stages. Firstly, the luciferase reporter element was constructed and stably transfected into HEK cells. For this purpose, five binding sites of the yeast transcription factor GAL4 (Accession # AF264724) were cloned in 5′-upstream of a 68 bp-long minimal MMTV promoter (Accession # V01175). The minimal MMTV promoter section contains a CCAAT box and a TATA element in order to enable efficient transcription by RNA polymerase II. The cloning and sequencing of the GAL4-MMTV construct took place in analogy to the description of Sambrook J. et. al. (Molecular cloning, Cold Spring Harbor Laboratory Press, 1989). Then the complete Photinus pyralis gene (Accession # M15077) was cloned in 3′-downstream of the GAL4-MMTV element. After sequencing, the luciferase reporter element consisting of five GAL4 binding sites, MMTV promoter and luciferase gene was recloned into a plasmid which confers zeocin resistance in order to obtain the plasmid pdeltaM-GAL4-Luc-Zeo. This vector was transfected into HEK cells in accordance with the statements in Ausubel, F. M. et al. (Current protocols in molecular biology, Vol. 1-3, John Wiley & Sons, Inc., 1995).
In a second step, the PPARalpha fusion protein (GR-GAL4-humanPPARalpha-LBD was introduced into the stable cell clone described. For this purpose, initially the cDNA coding for the N-terminal 76 amino acids of the glucocorticoid receptor (Accession # P04150) was linked to the cDNA section coding for amino acids 1-147 of the yeast transcription factor GAL4 (Accession # P04386). The cDNA of the ligand-binding domain of the human PPARalpha receptor (amino acids S167-Y468; Accession # S74349) was cloned in at the 3′-end of this GR-GAL4 construct. The fusion construct prepared in this way (GR-GAL4-humanPPARalpha-LBD) was recloned into the plasmid pcDNA3 (Invitrogen) in order to enable constitutive expression therein by the cytomegalovirus promoter. This plasmid was linearized with a restriction endonuclease and stably transfected into the previously described cell clone containing the luciferase reporter element. The finished PPARalpha reporter cell line which contains a luciferase reporter element and constitutively expresses the PPARalpha fusion protein (GR-GAL4-human PPARalpha-LBD) was isolated by selection with zeocin (0.5 mg/ml) and G418 (0.5 mg/ml).
The activity of PPARalpha agonists is determined in a 3-day assay which is described below: […]

[2] = target: T2, human PPARdelta (Homo sapiens, UniProt Q03181); assay: Cellular PPARdelta assay (HEK PPARdelta reporter cell line, luciferase); type: cell-based; settings: 24 h incubation
T2 construct: human PPARdelta receptor (amino acids S139-Y441); expressed in transfected cells; plasmid pcDNA3
T2 sequence (Q03181 139-441): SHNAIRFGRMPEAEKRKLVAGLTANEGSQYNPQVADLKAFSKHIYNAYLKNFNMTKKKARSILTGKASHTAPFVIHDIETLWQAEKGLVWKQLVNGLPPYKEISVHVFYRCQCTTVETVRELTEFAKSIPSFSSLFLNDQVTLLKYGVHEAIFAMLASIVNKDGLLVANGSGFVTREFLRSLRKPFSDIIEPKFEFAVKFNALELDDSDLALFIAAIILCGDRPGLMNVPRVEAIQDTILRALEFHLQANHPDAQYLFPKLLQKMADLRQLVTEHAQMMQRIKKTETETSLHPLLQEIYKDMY
Experimental: The raw data from the luminometer are transferred into a Microsoft Excel file. Dose-effect plots and EC50 values of PPAR agonists are calculated using the XL.Fit program as specified by the manufacturer (IDBS). […] Compounds of the invention of the formula I activate the PPARalpha receptor. Determination of EC50 values of PPAR agonists in the cellular PPARdelta assay The potency of substances which bind to human PPARdelta and activate it in an agonistic manner is analyzed using a stably transfected HEK cell line (HEK=human embryo kidney) which is referred to here as PPARdelta reporter cell line. In analogy to the assay described for PPARalpha, the PPARdelta reporter cell line also contains two genetic elements, a luciferase reporter element (pdeltaM-GAL4-Luc-Zeo) and a PPARdelta fusion protein (GR-GAL4-humanPPARdelta-LBD) which mediates expression of the luciferase reporter element depending on a PPARdelta ligand. The stably and constitutively expressed fusion protein GR-GAL4-humanPPARdelta-LBD binds in the cell nucleus of the PPARdelta reporter cell line via the GAL4 protein portion to the GAL4 DNA binding motifs 5′-upstream of the luciferase reporter element which is stably integrated in the genome of the cell line. There is only little expression of the luciferase reporter gene in the absence of a PPARdelta ligand if fatty acid-depleted fetal calf serum (cs-FCS) is used in the assay. PPARdelta ligands bind and activate the PPARdelta fusion protein and thereby stimulate expression of the luciferase reporter gene. The luciferase which is formed can be detected by means of chemiluminescence via an appropriate substrate.
The production of the stable PPARdelta reporter cell line is based on a stable HEK-cell clone which was stably transfected with a luciferase reporter element. This step was already described above in the section “construction of the PPARalpha reporter cell line”. In a second step, the PPARdelta fusion protein (GR-GAL4-humanPPARdelta-LBD was stably introduced into this cell clone. For this purpose, the cDNA coding for the N-terminal 76 amino acids of the glucocorticoid receptor (Accession # P04150) was linked to the cDNA section coding for amino acids 1-147 of the yeast transcription factor GAL4 (Accession # P04386). The cDNA of the ligand-binding domain of the human PPARdelta receptor (amino acids S139-Y441; Accession # L07592) was cloned in at the 3′-end of this GR-GAL4 construct. The fusion construct prepared in this way (GR-GAL4-humanPPARdelta-LBD) was recloned into the plasmid pcDNA3 (Invitrogen) in order to enable constitutive expression by the cytomegalovirus promoter. This plasmid was linearized with a restriction endonuclease and stably transfected into the previously described cell clone containing the luciferase reporter element. The resulting PPARdelta reporter cell line which contains a luciferase reporter element and constitutively expresses the PPARdelta fusion protein (GR-GAL4-human PPARdelta-LBD) was isolated by selection with zeocin (0.5 mg/ml) and G418 (0.5 mg/ml).
The activity of PPARdelta agonists is determined in a 3-day assay in exact analogy to the procedure already described for the PPARalpha reporter cell line except that the PPARdelta reporter cell line and a specific PPARdelta agonist was used as a standard to control test efficacy. PPARdelta EC50 values in the range from 0.3 nM to >10 μM were measured for the PPAR agonists of Examples 1 to 69 described in this application. Compounds of the invention of the formula I activate the PPARdelta receptor.

[3] = target: T3, PPARdelta (Mus musculus, UniProt P35396); settings: diabetic animal model; cited from earlier work
T3 sequence (P35396 1-440): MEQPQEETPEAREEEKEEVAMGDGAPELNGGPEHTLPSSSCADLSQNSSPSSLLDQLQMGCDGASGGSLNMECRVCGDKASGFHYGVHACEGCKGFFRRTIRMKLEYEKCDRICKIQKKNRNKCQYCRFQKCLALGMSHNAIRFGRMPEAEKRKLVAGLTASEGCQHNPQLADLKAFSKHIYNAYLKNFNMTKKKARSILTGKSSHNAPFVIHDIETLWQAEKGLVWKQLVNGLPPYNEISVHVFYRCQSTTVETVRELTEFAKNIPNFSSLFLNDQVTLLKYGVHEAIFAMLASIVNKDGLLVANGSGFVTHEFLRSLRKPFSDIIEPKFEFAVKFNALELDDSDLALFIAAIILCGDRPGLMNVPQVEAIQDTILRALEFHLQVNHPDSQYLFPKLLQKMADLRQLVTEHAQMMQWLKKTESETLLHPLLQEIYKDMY

[4] = tested on: PPARdelta; settings: obese, insulin resistant rhesus monkeys; cited from earlier work
[5] = tested on: PPARdelta/PPARalpha; settings: rhesus and cynomolgus monkeys; cited from earlier work
[6] = tested on: PPARdelta/PPARalpha; settings: two weeks clinical trials in healthy volunteers; cited from earlier work

| Structure (SMILES) | EC50 [1] [nM] | EC50 [2] [nM] | other results |
| --- | --- | --- | --- |
| O=c1[nH]c(-c2cc(F)c(OCc3sc([C@H]4CC[C@H](C(F)(F)F)CC4)nc3CN3CCC(C(F)(F)F)CC3)cc2OC(F)F)no1 [Example 62, 3-{2-Difluoromethoxy-5-fluoro-4-[2-(trans-1,4-trifluoromethyl-cyclohexyl)-4-(4-trifluoromethyl-piperidin-1-ylmethyl)-thiazol-5-ylmethoxy]-phenyl}-4H-1,2,4-oxadiazol-5-one] | > 33000 | 52 |  |
| CCC(Oc1ccc(-c2noc(=O)[nH]2)c(F)c1)c1sc([C@H]2CC[C@H](C(F)(F)F)CC2)nc1C (stereo partly drawn) [Example 66, 3-(2-Fluoro-4-{1-[4-methyl-2-(trans-1,4-trifluoromethyl-cyclohexyl)-thiazol-5-yl]-propoxy}-phenyl)-4H-1,2,4-oxadiazol-5-one] | 304 | 11 |  |
| CCC(Oc1ccc(-c2noc(=O)[nH]2)c(F)c1)c1sc([C@H]2CC[C@H](C(F)(F)F)CC2)nc1CN1CCC(C(F)(F)F)CC1 (stereo partly drawn) [Example 68, 3-(2-Fluoro-4-{1-[2-(trans-1,4-trifluoromethyl-cyclohexyl)-4-(4-trifluoromethyl-piperidin-1-ylmethyl)-thiazol-5-yl]-propoxy}-phenyl)-4H-1,2,4-oxadiazol-5-one] | > 33000 | 130 |  |
| CCCc1c(OCCCOc2ccc(OCC(=O)O)cc2)ccc(C(C)=O)c1O [Example L-165041] |  |  | plasma cholesterol [3]: raises plasma cholesterol |
| Cc1cc(SCc2sc(-c3ccc(C(F)(F)F)cc3)nc2C)ccc1OCC(=O)O [GW501516] |  |  | HDL-cholesterol [4]: raises HDL-cholesterol; plasma LDL-cholesterol, triglycerides and insulin levels [4]: decreases plasma LDL-cholesterol, triglycerides and insulin levels |
| CCCc1c(OCCCSc2nnc(SCC(=O)O)s2)ccc(C(C)=O)c1O [YM-16638] |  |  | plasma lipids [5]: significantly lowers plasma lipids; plasma lipids [6]: acts in a similar manner |
